Consider one compound from patent publication US8846711B2, “Heterocyclic acrylamides and their use as pharmaceuticals” (Fab Pharma S.A.S., priority 2009, dated 2014).

Assay [1] concerns Staphylococcus aureus NRS384. Put plainly: MIC determination using agar dilution method. Type of assay: cell-based. The following applies: MRSA / NRS 384, read-out: MIC (μg/ml) NRS384. The protocol:
(§1) Antibacterial activity was determined on strains from Mutabilis internal collection.
(§2) This protocol is compliant with Clinical Laboratory Standards Institute (CLSI) methodology as described in M7-A7 document of the CLSI. The compound to be tested is incorporated into Mueller-Hinton Agar medium (Fluka, Reference 70191) at one concentration per plate according to a geometric series of reason 2. Plates are inoculated with mid-log phase bacteria (inoculum=1×10^4 cfu/spot) and incubated overnight at 35° C. […] All manipulations, but compound handling (in pure DMSO), are performed under sterile conditions. The final DMSO concentration of DMSO in the plates is 2%. Vancomycin is used as reference.
A general note: Agar dilution tests growth on a series of plates holding different concentrations.

Assay [2] deals with Staphylococcus aureus NRS382. Description: MIC determination using agar dilution method. Format: cell-based. The following applies: MRSA / NRS 382, read-out: MIC (μg/ml) NRS382. The protocol: as §1, §2
The subject of assay [3] is Staphylococcus aureus NRS483. Description: MIC determination using agar dilution method. Type of assay: cell-based. The following applies: MRSA / NRS 483, read-out: MIC (μg/ml) NRS483. The protocol:
as §1, §2

Assay [4] concerns Staphylococcus aureus NRS386. Put plainly: MIC determination using agar dilution method. Type of assay: cell-based. The conditions noted are these: MRSA / NRS 386, read-out: MIC (μg/ml) NRS386. The protocol:
as §1, §2

Assay [5] has as its system Staphylococcus aureus NRS22. Description: MIC determination using agar dilution method. Type of assay: cell-based. The conditions noted are these: MRSA / NRS 22, read-out: MIC (μg/ml) NRS22. The protocol: as §1, §2
The subject of assay [6] is Staphylococcus aureus NRS120. Put plainly: MIC determination using agar dilution method. The conditions noted are these: MRSA / NRS 120, read-out: MIC (μg/ml) NRS120. Type of assay: cell-based. The protocol: as §1, §2
Assay [7] concerns Staphylococcus aureus NRS482. Put plainly: MIC determination using agar dilution method. Format: cell-based. The conditions noted are these: MRSA / NRS 482, read-out: MIC (μg/ml) NRS482. The protocol: as §1, §2
The subject of assay [8] is Staphylococcus aureus NRS383. Description: MIC determination using agar dilution method. Type of assay: cell-based. The conditions noted are these: MRSA / NRS 383, read-out: MIC (μg/ml) NRS383. The protocol: as §1, §2
For assay [9], the system named is Staphylococcus aureus NRS130. Description: MIC determination using agar dilution method. Type of assay: cell-based. The conditions noted are these: MSSA / NRS 130, read-out: MIC (μg/ml) NRS130. The protocol:
as §1, §2

Assay [10] has as its system Staphylococcus aureus NRS123. Description: MIC determination using agar dilution method. Type of assay: cell-based. The conditions noted are these: MRSA / NRS 123, read-out: MIC (μg/ml) NRS123. The protocol: as §1, §2
For assay [11], the system named is Staphylococcus aureus NRS484. Description: MIC determination using agar dilution method. Format: cell-based. The conditions noted are these: MRSA / NRS 484, read-out: MIC (μg/ml) NRS484. The protocol:
as §1, §2

Assay [12] deals with Staphylococcus aureus NRS119. Put plainly: MIC determination using agar dilution method. Type of assay: cell-based. The following applies: MRSA / NRS 119, read-out: MIC (μg/ml) NRS119. The protocol: as §1, §2
In assay [13] the test system is Staphylococcus aureus NRS269. Put plainly: MIC determination using agar dilution method. Type of assay: cell-based. The conditions noted are these: MRSA / NRS 269, read-out: MIC (μg/ml) NRS269. The protocol: as §1, §2
The test system of assay [14] is Staphylococcus aureus NRS128. Description: MIC determination using agar dilution method. Type of assay: cell-based. The conditions noted are these: MSSA / NRS 128, read-out: MIC (μg/ml) NRS128. The protocol: as §1, §2
In assay [15] the test system is Staphylococcus aureus NRS121. Put plainly: MIC determination using agar dilution method. Format: cell-based. The conditions noted are these: MRSA / NRS 121, read-out: MIC (μg/ml) NRS121. The protocol:
as §1, §2

For assay [16], the system named is Staphylococcus aureus NRS100. Description: MIC determination using agar dilution method. The conditions noted are these: MRSA / NRS 100, read-out: MIC (μg/ml) NRS100. Format: cell-based. The protocol: as §1, §2
Assay [17] relates to Staphylococcus aureus NRS262. Description: MIC determination using agar dilution method. Type of assay: cell-based. The following applies: MSSA / NRS 262, read-out: MIC (μg/ml) NRS262. The protocol:
as §1, §2

For assay [18], the system named is Staphylococcus aureus NRS192. Description: MIC determination using agar dilution method. Type of assay: cell-based. The conditions noted are these: MRSA / NRS 192, read-out: MIC (μg/ml) NRS192. The protocol: as §1, §2
Assay [19] concerns Staphylococcus aureus NRS127. Description: MIC determination using agar dilution method. Type of assay: cell-based. The following applies: MRSA / NRS 127, read-out: MIC (μg/ml) NRS127. The protocol: as §1, §2
Assay [20] deals with Staphylococcus aureus NRS385. Put plainly: MIC determination using agar dilution method. The following applies: MRSA / NRS 385, read-out: MIC (μg/ml) NRS385. Type of assay: cell-based. The protocol: as §1, §2
Assay [21] concerns Staphylococcus aureus strain ATCC 29213. Put plainly: In vivo antibacterial activity, thigh infection model in neutropenic Swiss mice. The following applies: 100 mg/kg orally, 1.5 h after infection, FIG. 1.
For assay [22], the target named is recombinant S. aureus FabI enzyme (Staphylococcus aureus (strain MRSA252), UniProt Q6GI75). Put plainly: FabI inhibition, fluorescence based assay. Format: biochemical. The following applies: in vitro. Put shortly:
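2 nM FabI preincubated 60 min at RT with compound, 40 μM NADPH and 10 μM NADP+ in 50 mM ADA pH 6.5, 1 mM DTT, 0.006% Triton X-100, 50 mM NaCl; started with 100 μM t-o-NAC. NADPH fluorescence (ex 360/em 520 nm) read at 0 and ~50 min. IC50 fitted to Langmuir model.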

Converted amounts (≈) assume the structure as drawn.

Broadly, the IC50 is the concentration that gives 50% inhibition.

Turning to `O=C1CCc2cc(/C=C/C(=O)N3CC(OCc4cccs4)C3)cnc2N1` [Example 12, 6-{(1E)-3-Oxo-3-[3-(2-thienylmethoxy)azetidin-1-yl]prop-1-en-1-yl}-3,4-dihydro-1,8-naphthyridin-2(1H)-one], the MIC in assay [1] is 4 µg/mL (≈ 10.8 µM); in [2], 4 µg/mL (≈ 10.8 µM); in [3], 4 µg/mL (≈ 10.8 µM); in [4], 4 µg/mL (≈ 10.8 µM); in assay [5] it was 4 µg/mL (≈ 10.8 µM); in [6], 2 µg/mL (≈ 5.41 µM). For the same compound, the MIC amounted to 4 µg/mL (≈ 10.8 µM) in [7]; 4 µg/mL (≈ 10.8 µM) in assay [8]; 2 µg/mL (≈ 5.41 µM) in assay [9]; 2 µg/mL (≈ 5.41 µM) in [10]; 4 µg/mL (≈ 10.8 µM) in assay [11]; 2 µg/mL (≈ 5.41 µM) in assay [12]. The MIC in [13] worked out at 4 µg/mL (≈ 10.8 µM); in assay [14] it was 1 µg/mL (≈ 2.71 µM); in assay [15] it was 2 µg/mL (≈ 5.41 µM); in assay [16], 2 µg/mL (≈ 5.41 µM); in assay [17], 4 µg/mL (≈ 10.8 µM); in assay [18], 4 µg/mL (≈ 10.8 µM). Also, the MIC in [19] and in [20] was 2 µg/mL (≈ 5.41 µM) each time. Also, the “in vivo antibacterial activity (bacterial burden in the thigh of infected mice)” value in assay [21] was “able to protect mice against thigh dissemination”. Further, in assay [22], the IC50 turned out to be 13 nM.
